Data set [1] concerns the target T1, Factor VIIa/tissue factor (Homo sapiens, UniProt P08709).
T1 construct: Single-chain factor VII may be converted to two-chain factor VIIa
Description: FVIIa/tissue factor activity measured with S2288 in presence and absence of Zn and chelator. In kind it is biochemical. Particulars: 10 nM FVIIa, 50 nM tissue factor. Here is the method:
The activity of 10 nM FVIIa and 50 nM tissue factor in the presence and absence of Zn and chelator was measured with S2288 as described in Example 4

For data set [2] the following is noted: blood; cited from earlier work.
Data set [3] deals with factor VIIa. Description: Effect of zinc and calcium ions on the activity of factor VIIa (FIG. 1A). To be noted: absence of tissue factor (FIG. 1A). In kind it is biochemical. The text has this: (§1) An effect of Ca^2+ ions is not easily contemplated in this model since the binding site for Ca^2+ in the serine protease domain is not nearby. […] Since histidines are prominant in zinc coordination we further propose that one or more of the residues of His 211, His 216 and His 256 are involved in the binding of Zn^2+ ions to factor VIIa.

Data set [4] has as its system factor VIIa-tissue factor complex. Description: Effect of zinc and calcium ions on the activity of the factor VIIa-tissue factor complex (FIG. 1B). It is filed as biochemical. To be noted: presence of tissue factor (FIG. 1B).
Excerpt: as §1

T1 sequence (P08709 213-466 limits assumed): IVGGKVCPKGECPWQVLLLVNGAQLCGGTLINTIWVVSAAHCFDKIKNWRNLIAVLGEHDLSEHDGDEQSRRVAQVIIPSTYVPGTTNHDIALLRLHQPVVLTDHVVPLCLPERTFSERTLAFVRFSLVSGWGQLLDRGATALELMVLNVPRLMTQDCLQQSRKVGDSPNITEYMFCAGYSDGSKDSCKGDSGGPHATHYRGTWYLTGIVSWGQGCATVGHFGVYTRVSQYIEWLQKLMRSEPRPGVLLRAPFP
T1 sequence (P08709 61-212 partner limits assumed): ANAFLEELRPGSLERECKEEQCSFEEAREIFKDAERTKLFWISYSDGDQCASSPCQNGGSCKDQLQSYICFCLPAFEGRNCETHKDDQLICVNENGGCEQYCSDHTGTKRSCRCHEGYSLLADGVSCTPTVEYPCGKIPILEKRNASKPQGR
T1 sequence (P13726 33-295 partner): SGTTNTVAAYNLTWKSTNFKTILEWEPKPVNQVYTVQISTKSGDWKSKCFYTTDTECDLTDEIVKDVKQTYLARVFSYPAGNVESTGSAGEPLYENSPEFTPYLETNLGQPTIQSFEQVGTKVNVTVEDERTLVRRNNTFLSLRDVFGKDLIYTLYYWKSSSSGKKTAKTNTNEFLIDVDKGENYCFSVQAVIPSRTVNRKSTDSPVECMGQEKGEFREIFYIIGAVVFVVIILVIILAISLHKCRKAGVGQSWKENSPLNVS

As for `O=C(NO)c1cc(C(=O)NO)[nH]n1` [NNC (28)], the activity at 50 µM in data set [1] (100 μM ZnCl2, 50 μM compound) was 55%; in data set [1] (No ZnCl2, 50 μM compound) it was 98%.

Regarding heparin, in data set [2], the half-life entry is on record as “approximately 80 minutes”. Regarding `[Zn+2]` [Zn^2+], the “inhibitory effect of Zn2+ on factor VIIa activity in presence of Ca2+” value in data set [3] and in data set [4] was “partly abolished by Ca^2+ ions in a competitive manner” throughout.

The values are drawn from patent US5859010A, “Factor VII -binding reagent” (Novo Nordisk A/S, priority 1996, dated 1999).
